Assay results published in the supplement of paper PMC10307832.

How the values were obtained:
Assay in all cases: relative viability (nuclei count vs DMSO), 5 days (fraction); higher = more cells survive
Silmitasertib + Olaparib = compound: O=C(O)c1ccc2c(c1)nc(Nc1cccc(Cl)c1)c1ccncc12 [Silmitasertib] + O=C(c1cc(Cc2n[nH]c(=O)c3ccccc23)ccc1F)N1CCN(C(=O)C2CC2)CC1 [Olaparib] (partner 8 µM)
Outline: (§1)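 Each reported value is a median over duplicate plates. It expresses relative viability: treated-well nuclei count divided by vehicle-well nuclei count. Lung cancer cell lines in 1536-well plates were dosed by pin tool a day after seeding, alone with one drug or with a fixed anchor-drug dose plus five library-drug doses (not always all listed) in √10 steps, and nuclei were counted after 5 days.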

[1] = compound: O=C(O)c1ccc2c(c1)nc(Nc1cccc(Cl)c1)c1ccncc12 [Silmitasertib] + N=C(N)NC(=N)NCCc1ccccc1 [Phenformin] (partner 250 µM)
Outline: as §1

[2] = compound: O=C(O)c1ccc2c(c1)nc(Nc1cccc(Cl)c1)c1ccncc12 [Silmitasertib] + CC(=O)c1c(C)c2cnc(Nc3ccc(N4CCNCC4)cn3)nc2n(C2CCCC2)c1=O [Palbociclib] (partner 0.5 µM)
Outline: as §1

[3] = compound: O=C(O)c1ccc2c(c1)nc(Nc1cccc(Cl)c1)c1ccncc12 [Silmitasertib] + Nc1nc2[nH]cc(CCc3ccc(C(=O)N[C@@H](CCC(=O)O)C(=O)O)cc3)c2c(=O)[nH]1 [Pemetrexed] (partner 0.2 µM)
Outline: as §1

[4] = compound: O=C(O)c1ccc2c(c1)nc(Nc1cccc(Cl)c1)c1ccncc12 [Silmitasertib] + CS(=O)(=O)CCNCc1ccc(-c2ccc3ncnc(Nc4ccc(OCc5cccc(F)c5)c(Cl)c4)c3c2)o1 [Lapatinib] (partner 2 µM)
Outline: as §1

Row | Cell Line | relative viability (Silmitasertib + Olaparib; first compound 0.04 µM) | relative viability (Silmitasertib + Olaparib; first compound 0.4 µM) | relative viability (Silmitasertib + Olaparib; first compound 1.265 µM) | relative viability (Silmitasertib + Olaparib; first compound 4 µM) | relative viability ([1]; first compound 0.04 µM) | relative viability ([1]; first compound 0.4 µM) | relative viability ([1]; first compound 1.265 µM) | relative viability ([1]; first compound 4 µM) | relative viability ([2]; first compound 0.04 µM) | relative viability ([2]; first compound 0.4 µM) | relative viability ([2]; first compound 1.265 µM) | relative viability ([2]; first compound 4 µM) | relative viability ([3]; first compound 0.04 µM) | relative viability ([3]; first compound 0.4 µM) | relative viability ([3]; first compound 1.265 µM) | relative viability ([3]; first compound 4 µM) | relative viability ([4]; first compound 0.04 µM) | relative viability ([4]; first compound 0.4 µM) | relative viability ([4]; first compound 1.265 µM) | relative viability ([4]; first compound 4 µM)
1 | NCI-H2023 | 0.532 | 0.363 | 0.46 | 0.468 | 0.455 | 0.38 | 0.374 | 0.34 | 0.336 | 0.458 | 0.337 | 0.354 | 0.278 | 0.187 | 0.266 | 0.21 | 1.05 | 0.373 | 0.767 | 0.159
2 | NCI-H2085 | 0.805 | 0.529 | 0.731 | 0.684 | 0.761 |  | 0.675 | 0.597 | 0.461 | 0.446 | 0.473 | 0.439 | 1.02 | 0.647 | 0.833 | 0.867 | 0.916 | 0.509 | 0.674 | 0.507
3 | NCI-H2087 | 0.614 | 0.217 | 0.465 | 0.38 | 0.515 |  | 0.431 | 0.223 | 0.217 | 0.224 | 0.18 | 0.139 | 0.604 | 0.64 | 0.665 | 0.542 | 0.924 | 0.753 | 0.727 | 0.377
4 | NCI-H2126 | 0.914 | 0.73 | 0.821 | 0.818 | 0.494 | 0.515 | 0.494 | 0.462 | 0.357 | 0.353 | 0.356 | 0.349 | 0.734 | 0.623 | 0.672 | 0.491 | 0.803 | 0.759 | 0.691 | 0.544
5 | NCI-H2170 | 0.56 | 0.299 | 0.529 | 0.574 | 0.408 | 0.34 | 0.406 | 0.421 | 0.371 | 0.284 | 0.363 | 0.344 | 0.271 | 0.258 | 0.25 | 0.282 | 0.292 | 0.258 | 0.276 | 0.274
6 | NCI-H2228 | 0.713 | 0.208 | 0.474 | 0.668 | 0.409 |  | 0.258 | 0.371 | 1.02 | 0.313 | 0.467 | 0.701 | 0.331 | 0.337 | 0.333 | 0.307 | 1.16 | 0.944 | 1.03 | 1
7 | NCI-H2347 | 0.602 | 0.52 | 0.56 | 0.507 | 1.22 |  | 0.452 | 0.301 | 0.43 | 0.418 | 0.38 | 0.394 | 0.44 |  | 0.363 | 0.42 | 0.944 | 0.77 | 0.759 | 0.508
8 | NCI-H2405 | 0.896 | 0.717 | 0.851 | 0.756 | 0.435 | 0.34 | 0.34 | 0.301 | 0.574 | 0.501 | 0.425 | 0.536 | 1.12 | 1 | 0.73 | 0.86 | 1.51 | 0.903 | 0.844 | 0.562
9 | NCI-H3122 | 0.675 | 0.371 | 0.616 | 0.644 | 0.416 | 0.365 | 0.433 | 0.47 | 0.219 | 0.17 | 0.172 | 0.155 | 0.203 | 0.189 | 0.185 | 0.194 | 1.07 | 0.975 | 1.07 | 1.08
10 | PC-3 [JPC-3] | 1.22 | 0.737 | 1.12 | 1.13 | 0.475 | 0.398 | 0.468 | 0.424 | 0.544 | 0.544 | 0.615 | 0.585 | 1.18 | 0.919 | 1.15 | 0.6 | 0.51 | 0.417 | 0.458 | 0.303
11 | PC-14 | 0.346 | 0.163 | 0.34 | 0.272 | 0.641 |  | 0.547 | 0.125 | 0.581 |  | 0.553 | 0.541 | 0.134 |  | 0.122 | 0.113 | 0.325 | 0.347 | 0.381 | 0.391
12 | RERF-LC-KJ | 0.909 | 0.829 | 0.785 | 0.74 | 0.407 | 0.378 | 0.31 | 0.268 | 1.16 | 0.993 | 0.758 | 0.798 | 0.488 | 0.445 | 0.439 | 0.342 | 0.859 | 0.819 | 0.767 | 0.516
13 | SK-LU-1 | 0.45 | 0.267 | 0.308 | 0.225 | 0.527 | 0.451 | 0.426 | 0.262 | 0.424 | 0.342 | 0.245 | 0.312 | 0.984 | 0.885 | 0.771 | 0.351 | 0.995 | 0.649 | 0.369 | 0.388
14 | SK-MES-1 | 0.777 | 0.623 | 0.289 | 0.207 | 0.752 | 0.582 | 0.434 | 0.27 | 0.359 | 0.322 | 0.253 | 0.275 | 1.03 | 1.02 | 0.763 | 0.339 | 0.442 | 0.594 | 0.536 | 0.429
15 | SW 1573 | 0.552 | 0.457 | 0.428 | 0.427 | 0.465 | 0.319 | 0.336 | 0.387 | 0.415 | 0.373 | 0.309 | 0.337 | 1.11 | 0.875 | 0.89 | 0.697 | 1.1 | 1.07 | 1.11 | 0.67
16 | UMC-11 | 0.335 | 0.298 | 0.301 | 0.26 | 0.336 | 0.319 | 0.341 | 0.286 | 0.364 | 0.344 | 0.347 | 0.379 | 0.951 | 0.785 | 0.774 | 0.553 | 1.14 | 0.949 | 0.965 | 0.359
